Like-named read-outs stand apart in the source and are kept apart here.
Legend:
[1] = Bioavailability of peptides after vaginal administration to sheep, relative to intravenous injection; conditions: female, sheep, in vivo
Description: (§1) First, a peptide that undergoes receptor-mediated transport across the vaginal epithelium was identified by studying the permeation of peptides of varying molecular weight in a sheep model. Peptides were delivered vaginally to sheep in 5 ml of aqueous or methocel solutions with typical peptide concentrations of 10-40 μg/ml. A group of 18 intact ewes were utilized for these experiments. For each study, sheep were randomly assigned to a treatment group. In GnRH studies where each animal received all possible treatment combinations, each animal was assigned to an initial treatment group at random and subsequently randomly to each of the remaining treatment groups. A minimum of 5 days (typically 10 or more days) was allowed between experiments on a given animal, to provide sufficient time for complete recovery of pituitary responsiveness to the highest doses of the GnRH agonist used A 16G 150 mm jugular catheter (Abbocath-T, Abbott Laboratories, Chicago, Ill.) was inserted and blood samples collected at 0, 30, 60, 90, 120, 180, 240, 360, 480 and 1440 min. after treatment. Luteinizing hormone (LH) levels were determined.
LHRH analog was placed in methyl cellulose solutions (“methocels”) of varying apparent viscosity. […] First, 200 μg of leuprolide acetate in 5 ml of aqueous solutions with melhocel weight concentrations varying between 0% and 3.0% were vaginally administered.
The enhanced bioavailability of LHRH also coincides with a longer-term release into the systemic circulation at the optimal methocel concentrations. […] To test this hypothesis, the efficacy of a second, physically cross-linked hydrogel that was believed would not enhance endocytosis, but whose apparent viscosity (in the range of hydrogel concentrations 0.0-5.5%) was similar to that of the methocels (in the range 0.0-3.0%) was examined.

[2] = tested on: luteinizing hormone (LH); experiment: LH release after DES in gel in ewes given systemic depot progesterone and ear implants of synthetic progestogen; assay type: in vivo, sheep
Description: An attempt was made to treat ewes with progesterone using the systemic administration of a depot form of progesterone and ear implants of a synthetic progestogen. Pituitary release of LH was poor following the vaginal administration of DES in gel. When LH release in these animals was not observed, the gel from the same preparations used vaginally was injected subcutaneously. LH release was then obtained, confirming that the DES/gel preparations contained biologically active material. Given the consistent responses obtained in earlier experiments and those obtained more recently using the CIDR delivery system, it was concluded that the progesterone (generally) should be applied directly to the vagina in order to achieve sufficient local concentrations. Given that luteal phase sheep also respond well, systemic administration of greater amounts of progesterone than used here, in formulations that will maintain consistently high concentrations in the blood, should also work.

[3] = tested on: luteinizing hormone (LH); experiment: Daily vaginal DES in progesterone-primed ovariectomized ewes: basal LH and pituitary responsiveness; assay type: in vivo, sheep
Description: The objective of this study was to determine if daily vaginal administration of DES in progesterone-primed ewes would cause a reduction in basal LH secretion and loss of pituitary responsiveness of GnRH. Six ovariectomized ewes were used for the study. Vaginal CIDR devices containing progesterone were inserted. Twenty-four hours later, ewes were dosed daily with 200 μg of DES (GnRH agonist) in 5 mL of gel. Each day, blood samples were collected at 0 and 120 minutes post-treatment. These times were selected in order to evaluate changes in basal secretion of LH (time 0) and the peak LH response following GnRH administration (time 120).

[4] = tested on: luteinizing hormone (LH); assay type: in vivo, sheep
Description: Ewes (n=12) were treated with progesterone using a vaginal CIDR device. In addition, six sheep received a 15 mm silastic implant of estradiol. Five days later, all sheep were treated vaginally with 200 μg of DES in gel. Blood samples were taken every 30 minutes for 2 hours following treatment and then every 60 minutes for an additional four hours.

[5] = tested on: luteinizing hormone (LH); experiment: CIDR device control study: LH release after vaginal DES; assay type: in vivo, sheep
Description: Another study provided information about the role of the silastic CIDR device itself in the delivery process. The study was based on concern that the CIDR might be damaging the vaginal mucosa, allowing for GnRH transport by a non-selective mechanism. CIDR devices were inserted into six ewes. Five days later, all ewes were treated vaginally with DES. […] After the initial dosing, three ewes were treated with DES and three with gel alone every day for 18 days. At the end of the 18-day treatment period, all ewes were again treated with DES in gel. […] Consequently, by the time the second DES administration was given, the CIDR devices had been in place for approximately 24 days. The ewes therefore were no longer receiving adequate amounts of progesterone locally to maintain the vaginal transport system.

[6] = tested on: luteinizing hormone (LH); experiment: Chronic daily vaginal dosing of DES in gel to suppress LH secretion, ovariectomized sheep without steroids; assay type: in vivo; conditions: no steroid
Description: The objective was to determine if chronic vaginal dosing with 200 μg of deslorelin (“DES”) in gel would be able to suppress secretion of LH. […] doses of DES will result in the down-regulation of the anterior pituitary gland in sheep. Ovariectomized sheep were used for the study, since they secrete high levels of LH in the-absence of ovarian steroids. The sheep were dosed daily with DES in 5 mL of gel, or gel only for 17 days. A single blood sample was collected by jugular venipuncture. Plasma was collected and assayed for LH.

[7] = tested on: serum cortisol; experiment: Serum cortisol response to iv injection and vaginal administration of vasopressin; assay type: in vivo, sheep
Description: FIGS. 1a and 1b are graphs showing serum responses to iv injection and vacinal administration of vasopressin and leuprolide acetate. […] Vasopressin was injected intravenously ([…]) through a jugular catheter. The peptide was delivered vaginally in 5 ml of aqueous solution (200 g does). Standard errors are based on n=6. […] LHRH analog was injected intravenously ([…]) into through a jugular catheter. The peptide was delivered vaginally in 5 ml of aqueous solution (200 g dose). Standard errors are based on n=6.
as §1
To determine whether membrane damage might explain the results shown in FIG. 2, vasopressin was vaginally administered in methocel solutions of 1.5 and 1.75%.

CC(C)C[C@H](NC(=O)[C@H](CCCCN)NC(=O)CNC(=O)[C@H](CC(C)C)NC(=O)[C@@H](NC(=O)[C@@H]1CSSC[C@H](N)C(=O)N[C@@H](CO)C(=O)N[C@@H](CC(N)=O)C(=O)N[C@@H](CC(C)C)C(=O)N[C@@H](CO)C(=O)N[C@@H]([C@@H](C)O)C(=O)N1)C(C)C)C(=O)N[C@@H](CO)C(=O)N[C@@H](CCC(N)=O)C(=O)N[C@@H](CCC(=O)O)C(=O)N[C@@H](CC(C)C)C(=O)N[C@@H](Cc1c[nH]cn1)C(=O)N[C@@H](CCCCN)C(=O)N[C@@H](CC(C)C)C(=O)N[C@@H](CCC(N)=O)C(=O)N[C@H](C(=O)N[C@@H](Cc1ccc(O)cc1)C(=O)N1CCC[C@H]1C(=O)N[C@@H](CCCNC(=N)N)C(=O)N[C@H](C(=O)N[C@@H](CC(N)=O)C(=O)N[C@H](C(=O)NCC(=O)N[C@@H](CO)C(=O)NCC(=O)N[C@H](C(=O)N1CCC[C@H]1C(N)=O)[C@@H](C)O)[C@@H](C)O)[C@@H](C)O)[C@@H](C)O [salmon calcitonin]
bioavailability [1]: < 0.1%

CCNC(=O)[C@@H]1CCCN1C(=O)[C@H](CCCN=C(N)N)NC(=O)[C@H](CC(C)C)NC(=O)[C@@H](Cc1c[nH]c2ccccc12)NC(=O)[C@H](Cc1ccc(O)cc1)NC(=O)[C@H](CO)NC(=O)[C@H](Cc1c[nH]c2ccccc12)NC(=O)[C@H](Cc1cnc[nH]1)NC(=O)[C@@H]1CCC(=O)N1 [DES, deslorelin]
LH release ([2]; same gel preparation injected subcutaneously): obtained
pituitary release of LH ([2]; vaginal administration in gel, systemic depot progesterone and progestogen ear implants): poor
ewes in which the change in LH between 0 and 120 minutes was greatest on the first day of administration ([3]; 200 μg daily vaginally in 5 mL gel, progesterone-primed ovariectomized ewes): 3 of 6
ewes that transport GnRH ([3]; after four days of exposure to progesterone): ~100%
ewes with significant transport ([3]; after only 24 hours of exposure to progesterone): Approximately 50%
basal LH ([3]; progesterone-primed ewes, daily treatment, time 0 sample (FIG. 8)): significant decreases
pituitary responsiveness with continued daily treatment ([3]; progesterone-primed ewes, first-treatment LH differential set to 100% (FIG. 7)): significantly reduced
time over which the change in LH secretion continued to increase after initiation of treatment ([3]; the two remaining animals of six): 5 to 7 days
pituitary responsiveness once the maximum response was achieved ([3]; the two remaining animals of six (Ewe 9)): rapidly declined
ewes that responded with a robust discharge of LH ([4]; 200 μg vaginally in gel, 5 days after progesterone CIDR with or without estradiol implant, n=12): All ewes
time of peak LH ([4]; ewes treated only with progesterone): 120 min
time of peak LH ([4]; ewes treated with progesterone and estradiol): 240 min
lag time between vaginal administration and transport of sufficient amounts into the blood to cause LH release ([4]; in vivo): 70 to 80 min
ewes that displayed a robust release of LH ([5]; DES in gel at end of 18-day period, CIDR in place approximately 24 days): none
ewes with a robust release of LH ([5]; vaginal treatment five days after CIDR insertion): Five of the six
average LH concentrations, DES versus control (gel only) group ([6]; 200 μg daily vaginally in 5 mL gel for 17 days): no differences
LH secretion ([6]; between days 6 and 12 of daily vaginal dosing): slightly suppressed

NC(=O)CC[C@@H]1NC(=O)[C@H](Cc2ccccc2)NC(=O)[C@H](Cc2ccc(O)cc2)NC(=O)[C@@H](N)CSSC[C@@H](C(=O)N2CCC[C@H]2C(=O)N[C@@H](CCCN=C(N)N)C(=O)NCC(N)=O)NC(=O)[C@H](CC(N)=O)NC1=O [vasopressin]
systemic cortisol levels ([7]; intravenous injection, within the first hour following treatment): high systemic cortisol levels
changes in concentrations of cortisol ([7]; vaginal administration in methocel solutions of 1.5 and 1.75%): no detectable changes
change in systemic cortisol levels ([7]; vaginal administration, aqueous solution (FIG. 1a)): no detectable change
bioavailability ([1]; 200 μg, vaginal administration in an aqueous buffer, leuprolide value based on biological response, read-out: bioavailability): < 0.1%

Reference: patent USRE42072E1, “Compositions and methods for enhancing receptor-mediated cellular internalization” (The Penn State Research Foundation, priority 1996, dated 2011)
